Reference: US10543212B2, “Substituted amines for treating cardiac diseases” (Cardurion Pharmaceuticals, LLC, priority 2017, dated 2020)

biological target: T1, Full-length, GST-tagged, human CaMKIIδ (Homo sapiens, UniProt Q13557); assay: CaMKIIδ binding assay (TR-FRET with BODIPY-labeled probe ligand); conditions: CaMKIIδ binding assay, results of Table 2
T1 construct: Full-Length, Glutathione-S-Transferase(GST)-Tagged, Human CaMKIIδ was purchased from Carna Biosciences; purchased Carna Biosciences 02-111
Method in brief: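 Compounds were tested as 4-fold, eight-point series for 1 hr at room temperature, and IC50 was obtained by logistic fitting against a 3 μM parent-compound control. Signal came from displacement of a 300 nM BODIPY ligand from 0.5 nM GST-CaMKIIδ, detected via Tb-anti-GST in calmodulin/Ca2+ (pH 7.6).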

T1 sequence (Q13557 1-478 isoform Q13557-12): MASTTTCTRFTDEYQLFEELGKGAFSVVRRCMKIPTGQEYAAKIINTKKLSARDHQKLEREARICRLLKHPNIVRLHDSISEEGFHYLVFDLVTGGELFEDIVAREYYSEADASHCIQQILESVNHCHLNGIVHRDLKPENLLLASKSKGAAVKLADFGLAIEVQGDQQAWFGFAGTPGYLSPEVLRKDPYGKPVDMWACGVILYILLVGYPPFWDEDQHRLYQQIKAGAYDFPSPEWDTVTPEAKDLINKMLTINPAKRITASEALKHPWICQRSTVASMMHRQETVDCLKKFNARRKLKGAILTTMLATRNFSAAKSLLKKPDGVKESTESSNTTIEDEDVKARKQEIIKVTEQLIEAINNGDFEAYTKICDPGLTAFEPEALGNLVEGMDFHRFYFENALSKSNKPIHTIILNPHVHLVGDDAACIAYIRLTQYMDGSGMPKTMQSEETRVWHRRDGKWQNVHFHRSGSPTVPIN

How did the IC50 turn out when CCc1cc2c(cc1Nc1ncc(-c3ccc(Cl)c(O[C@@H](C)Cn4cnnn4)c3)cn1)CN(C1COC1)CC2 [Example 515, (S)-N-(5-(3-((1-(1H-tetrazol-1-yl)propan-2-yl)oxy)-4-chlorophenyl)pyrimidin-2-yl)-6-ethyl-2-(oxetan-3-yl)-1,2,3,4-tetrahydroisoquinolin-7-amine] was run?
Its IC50 is 10 to 100 nM.

How did the IC50 turn out when C[C@@H](Cn1cnnn1)Oc1cc(-c2cnc(Nc3cc(C4CCNCC4)c(F)cc3F)nc2)ccc1Cl [Example 575, (S)-5-(3-((1-(1H-tetrazol-1-yl)propan-2-yl)oxy)-4-chlorophenyl)-N-(2,4-difluoro-5-(piperidin-4-yl)phenyl)pyrimidin-2-amine] was run?
Its IC50 is < 10 nM.

With C[C@@H](Cn1cnnn1)Oc1cc(-c2cnc(Nc3cn(C4CCN(Cc5ccsc5)CC4)nc3C(F)(F)F)nc2)ccc1Cl [Example 560, (S)-5-(3-((1-(1H-tetrazol-1-yl)propan-2-yl)oxy)-4-chlorophenyl)-N-(1-(1-(thiophen-3-ylmethyl)piperidin-4-yl)-3-(trifluoromethyl)-1H-pyrazol-4-yl)pyrimidin-2-amine] as the molecule, how does the IC50 read?
Its IC50 is < 10 nM.

For COCCN1CCc2cc(Nc3ncc(-c4ccc(Cl)c(O[C@@H](C)Cn5cnnn5)c4)cn3)c(OC)cc2C1 [Example 492, (S)-N-(5-(3-((1-(1H-tetrazol-1-yl)propan-2-yl)oxy)-4-chlorophenyl)pyrimidin-2-yl)-7-methoxy-2-(2-methoxyethyl)-1,2,3,4-tetrahydroisoquinolin-6-amine], which IC50 is on record?
Its IC50 is < 10 nM.

COc1cc2c(cc1Nc1ncc(-c3ccc(Cl)c(O[C@@H](C)Cn4cnnn4)c3)cn1)C(=O)N(C1CCOCC1)C2 [Example 438, (S)-6-((5-(3-((1-(1H-tetrazol-1-yl)propan-2-yl)oxy)-4-chlorophenyl)pyrimidin-2-yl)amino)-5-methoxy-2-(tetrahydro-2H-pyran-4-yl)isoindolin-1-one] was tested. Which IC50 did it give?
Its IC50 is 10 to 100 nM.

same assay, conditions: CaMKIIδ binding assay; activity class per Table 2

For C[C@@H](Cn1cnnn1)Oc1cc(-c2cnc(Nc3cn(C4CC5(C4)CN(C4COC(C)(C)OC4)C5)nc3C(F)(F)F)nc2)ccc1Cl [Example 922, (S)-5-(3-((1-(1H-tetrazol-1-yl)propan-2-yl)oxy)-4-chlorophenyl)-N-(1-(2-(2,2-dimethyl-1,3-dioxan-5-yl)-2-azaspiro[3.3]heptan-6-yl)-3-(trifluoromethyl)-1H-pyrazol-4-yl)pyrimidin-2-amine], which IC50 is on record?
Its IC50 is < 10 nM.

With COc1ccc(-n2cc(Nc3ncc(-c4ccc(Cl)c(O[C@@H](C)Cn5cnnn5)c4)cn3)c(OCC(F)(F)F)n2)cn1 [Example 901, (S)-5-(3-((1-(1H-tetrazol-1-yl)propan-2-yl)oxy)-4-chlorophenyl)-N-(1-(6-methoxypyridin-3-yl)-3-(2,2,2-trifluoroethoxy)-1H-pyrazol-4-yl)pyrimidin-2-amine] as the molecule, how does the IC50 read?
Its IC50 is 10 to 100 nM.

For C[C@@H](Cn1cnnn1)Oc1cc(-c2cnc(Nc3cn(CC4(O)CCC5(CC4)OCCO5)nc3OCC(F)(F)F)nc2)ccc1Cl [Example 899, (S)-8-((4-((5-(3-((1-(1H-tetrazol-1-yl)propan-2-yl)oxy)-4-chlorophenyl)pyrimidin-2-yl)amino)-3-(2,2,2-trifluoroethoxy)-1H-pyrazol-1-yl)methyl)-1,4-dioxaspiro[4.5]decan-8-ol], which IC50 is on record?
Its IC50 is < 10 nM.

For C[C@@H](Cn1cnnn1)Oc1cc(-c2cnc(Nc3cn(C4CC5(C4)CN(c4ncccn4)C5)nc3OCC(F)(F)F)nc2)ccc1Cl [Example 952, (S)-5-(3-((1-(1H-tetrazol-1-yl)propan-2-yl)oxy)-4-chlorophenyl)-N-(1-(2-(pyrimidin-2-yl)-2-azaspiro[3.3]heptan-6-yl)-3-(2,2,2-trifluoroethoxy)-1H-pyrazol-4-yl)pyrimidin-2-amine], which IC50 is on record?
The IC50 was < 10 nM.

same assay, conditions: Table 2; CaMKIIδ binding assay, activity given as class A/B/C

With C[C@@H](Cn1cnnn1)Oc1cc(-c2cnc(Nc3cn(C4CCN(C(=O)OC(C)(C)C)CC4)nc3C(F)F)nc2)ccc1Cl [Example 766, tert-butyl (S)-4-(4-((5-(3-((1-(1H-tetrazol-1-yl)propan-2-yl)oxy)-4-chlorophenyl)pyrimidin-2-yl)amino)-3-(difluoromethyl)-1H-pyrazol-1-yl)piperidine-1-carboxylate] as the molecule, how does the IC50 read?
The IC50 was 10 to 100 nM.

Which IC50 does the source give for C[C@@H](Cn1cnnn1)Oc1cc(-c2cnc(Nc3cn([C@H]4C[C@@H](NC5CCOCC5)C4)nc3OCC(F)F)nc2)ccc1Cl [Example 850, (S)-5-(3-((1-(1H-tetrazol-1-yl)propan-2-yl)oxy)-4-chlorophenyl)-N-(3-(2,2-difluoroethoxy)-1-(cis-3-((tetrahydro-2H-pyran-4-yl)amino)cyclobutyl)-1H-pyrazol-4-yl)pyrimidin-2-amine] here?
The IC50 was < 10 nM.

With C[C@@H](Cn1cnnn1)Oc1cc(-c2cnc(Nc3sc4c(c3C#N)CCC4)nc2)ccc1Cl [Example 753, (S)-2-((5-(3-((1-(1H-tetrazol-1-yl)propan-2-yl)oxy)-4-chlorophenyl)pyrimidin-2-yl)amino)-5,6-dihydro-4H-cyclopenta[b]thiophene-3-carbonitrile] as the molecule, how does the IC50 read?
The IC50 was ≥ 100 nM.

Which IC50 does the source give for C[C@@H](Cn1cnnn1)Oc1cc(-c2cnc(Nc3cn(C)nc3OCC(F)(F)F)nc2)ccc1C#N [Example 765, (S)-2-((1-(1H-tetrazol-1-yl)propan-2-yl)oxy)-4-(2-((1-methyl-3-(2,2,2-trifluoroethoxy)-1H-pyrazol-4-yl)amino)pyrimidin-5-yl)benzonitrile] here?
The IC50 was < 10 nM.

For C[C@@H](Cn1cnnn1)Oc1cc(-c2cnc(Nc3snnc3-c3ccc(Cl)cc3)nc2)ccc1Cl [Example 748, (S)-N-(5-(3-((1-(1H-tetrazol-1-yl)propan-2-yl)oxy)-4-chlorophenyl)pyrimidin-2-yl)-4-(4-chlorophenyl)-1,2,3-thiadiazol-5-amine], which IC50 is on record?
The IC50 was ≥ 100 nM.

same assay, conditions: Table 2; activity class for CaMKIIδ

COc1cc(N2CCN3CCCC3C2)ccc1Nc1ncc(-c2ccc(Cl)c(O[C@@H](C)Cn3cnnn3)c2)cn1 (stereo partly drawn) [Example 672, 5-(3-(((S)-1-(1H-tetrazol-1-yl)propan-2-yl)oxy)-4-chlorophenyl)-N-(4-(hexahydropyrrolo[1,2-a]pyrazin-2(1H)-yl)-2-methoxyphenyl)pyrimidin-2-amine] was tested. Which IC50 did it give?
The IC50 was < 10 nM.

For C[C@@H](Cn1cnnn1)Oc1cc(-c2cnc(Nc3cn([C@H]4CC[C@@H](C(=O)O)CC4)nc3C(F)(F)F)nc2)ccc1Cl [Example 625, cis-(S)-4-(4-((5-(3-((1-(1H-tetrazol-1-yl)propan-2-yl)oxy)-4-chlorophenyl)pyrimidin-2-yl)amino)-3-(trifluoromethyl)-1H-pyrazol-1-yl)cyclohexane-1-carboxylic acid], which IC50 is on record?
Its IC50 is ≥ 100 nM.

Which IC50 does the source give for C[C@@H](Cn1cnnn1)Oc1cc(-c2cnc(Nc3cn(CC4CN(Cc5ccccc5)CCO4)nc3C(F)(F)F)nc2)ccc1Cl (stereo partly drawn) [Example 641, 5-(3-(((S)-1-(1H-tetrazol-1-yl)propan-2-yl)oxy)-4-chlorophenyl)-N-(1-((4-benzylmorpholin-2-yl)methyl)-3-(trifluoromethyl)-1H-pyrazol-4-yl)pyrimidin-2-amine] here?
The IC50 was ≥ 100 nM.

How did the IC50 turn out when C[C@@H](Cn1cnnn1)Oc1cc(-c2cnc(Nc3cn([C@@H]4CCCC[C@H]4O)nc3C(F)(F)F)nc2)ccc1Cl (mixture of isomers) [Example 704, trans-2-(4-((5-(3-(((S)-1-(1H-tetrazol-1-yl)propan-2-yl)oxy)-4-chlorophenyl)pyrimidin-2-yl)amino)-3-(trifluoromethyl)-1H-pyrazol-1-yl)cyclohexan-1-ol] was run?
The IC50 was < 10 nM.

CCn1cc(Nc2ncc(-c3ccc(Cl)c(O[C@@H](C)Cn4cnnn4)c3)cn2)c(N2CCCC2)n1 [Example 669, (S)-5-(3-((1-(1H-tetrazol-1-yl)propan-2-yl)oxy)-4-chlorophenyl)-N-(1-ethyl-3-(pyrrolidin-1-yl)-1H-pyrazol-4-yl)pyrimidin-2-amine] was tested. Which IC50 did it give?
The IC50 was 10 to 100 nM.
